Laboratory results taken from patent US6462055B2, “Alpha-methylbenzyl-containing thiourea inhibitors of herpes viruses containing a phenylenediamine group” (Wyeth, priority 1998, dated 2002).
Values after ≈ are worked out from the molar mass of the structure shown.

What was measured:
HSV-1 = experiment: HSV Antiviral (ELISA) Assay in Vero cells; format: cell-based, herpes simplex virus type 1; conditions: HSV-1, Vero cells; for IC50: Human alphaherpesvirus 1, read-out: IC50 (ug/ml) HSV
Procedure: Vero cells (ATCC #CCL-81) are plated on 96-well tissue culture plates at 3.5×10^4 cells per 100 μl tissue culture DMEM (Dulbeccos modified Eagle media) supplemented with 2% fetal bovine serum (FBS) in each well. After overnight incubation @ 37° C. (in 5% CO2) and 30 minutes prior to infection with HSV-1 (multiplicity of infection equal to 0.006), cells are either untreated, or treated with test compound (multiple concentrations) or reference standard drug control. After approximately 24 hours post-infection incubation @ 37° C. (in 5% CO2), cells are fixed for ELISA assay. The primary antibody is murine anti-HSV glycoprotein D monoclonal primary antibody and the secondary antibody is goat anti-mouse IgG linked to β-galactosidase. Thus the extent of viral replication is determined by assessing β-galactosidase activity by quantifying the generation of the 4-methyl umbelliferone fluorescent cleavage product after addition of the methyl umbelliferyl-β-D-galactoside (Sigma #M1633) substrate on a microfluorimeter (365 nm for excitation and 450 nm for emission). Antiviral activity (IC50) of the test compound is determined by comparing the flourescence obtained in absence of compound to that obtained in the presence of compound.

VZV strain Ellen = experiment: VZV Antiviral (ELISA) Assay in human foreskin fibroblast cells; format: cell-based, varicella-zoster virus; conditions: for IC50 / inhibition at 10 µg/mL: Human alphaherpesvirus 3, Fibroblast; for IC50: read-out: IC50 (ug/ml) VZV; for inhibition at 10 µg/mL: read-out: % inhibition 10 ug/ml VZV, 10 ug/ml
Procedure: For the generation of stock VZV to be used in the assay, VZV strain Ellen (ATCC #VR-1367) is used to infect human foreskin fibroblast (HFF) cells at low multiplicity (less than 0.1) and incubated overnight at 37° C. in 5% CO2. After the overnight incubation, the mixture of uninfected and VZV-infected HFF infected cells are then harvested and added to each well of 96-well plates (3.5×10^4 cells in 100 μl DMEM supplemented with 2% FBS) which contain test compound or the reference standard drug control (in 100 μl DMEM supplemented with 2% FBS per well). These cells are incubated for three days at 37° C. in 5% CO2, then fixed for ELISA assay. The primary antibody is murine anti-VZV glycoprotein II monoclonal antibody (Applied Biosystems, Inc. #13-145-100) and the secondary antibody is goat anti-mouse IgG linked to β-galactosidase. Thus the extent of viral replication is determined by assessing β-galactosidase activity by quantifying the generation of the 4-methyl umbelliferone fluorescent cleavage product after addition of the methyl umbelliferyl-β-D-galactoside (Sigma #M1633) substrate on a microfluorimeter (365 nm for excitation and 450 nm for emission). Antiviral activity (IC50) of the test compound is determined by comparing the flourescence obtained in absence of compound to that obtained in the presence of compound.

SMILES	IC50 (HSV-1)	IC50 (ug/ml) HSV (HSV-1)	IC50 (VZV strain Ellen)	inhibition at 10 µg/mL (VZV strain Ellen)	IC50 (ug/ml) VZV (VZV strain Ellen)	% inhibition 10 ug/ml VZV (VZV strain Ellen)
C[C@@H](NC(=S)Nc1ccc(NC(=O)c2ccccc2F)cc1)c1ccc(Cl)cc1 [Example 1014, N-(4-{3-[(1R)-1-(4-Chloro-phenyl)-ethyl]-thioureido}-phenyl)-2-fluoro-benzamide]	> 10 µg/mL		> 7.5 µg/mL			
CC(O)c1ccc(NC(=S)Nc2ccc(NC(=O)c3ccccc3F)cc2)cc1Cl (stereo not shown) [Example 865, N-(4-{3-[3-Chloro-4-(1-hydroxy-ethyl)-phenyl]-thioureido}-phenyl)-2-fluoro-benzamide]	4 µg/mL (≈ 9.01 µM)		> 10 µg/mL	52%		
C[C@H](NC(=S)Nc1ccc(NC(=O)c2ccccc2F)cc1)c1ccc(Cl)cc1 [Example 1015, N-(4-{3-[(1S)-1-(4-Chloro-phenyl)-ethyl]-thioureido}-phenyl)-2-fluorobenzamide]	> 10 µg/mL		0.03 µg/mL (≈ 0.0701 µM)			
COc1cc(OC)c(NC(=S)Nc2ccc(NC(=O)c3ccc4ccccc4c3)cc2)cc1Cl [Example 156]		2 µg/mL (≈ 4.07 µM)			>10 µg/mL	17%
CC(NC(=S)Nc1ccc(NC(=O)c2ccccc2F)cc1)c1ccc(C(F)(F)F)cc1 (stereo not shown) [Example 787]	> 10 µg/mL		> 7.5 µg/mL			
CC(NC(=S)Nc1ccc(NC(=O)c2nccc3ccccc23)cc1)c1ccc(Br)cc1 (stereo not shown) [Example 978, Isoquinoline-1-carboxylic acid (4-{3-[1-(4-bromo-phenyl)ethyl]-thioureido}-phenyl)-amide]	> 10 µg/mL		0.04 µg/mL (≈ 0.0791 µM)			
CN(C)c1ccc(NC(=S)Nc2ccc(NC(=O)c3ccccc3F)cc2)cc1Cl [Example 852, N-{4-[3-(3-Chloro-4-dimethylamino-phenyl)-thioureido]-phenyl}-2-fluoro-benzamide]	4 µg/mL (≈ 9.03 µM)		6.5 µg/mL (≈ 14.7 µM)	80%		
O=C(Nc1ccc(NC(=S)Nc2ccccc2Cl)cc1)c1ccccc1F [Example 948, N-{4-[3-(2-Chloro-phenyl)-thioureido]-phenyl}-2-fluoro-benzamide]	6 µg/mL (≈ 15 µM)		> 10 µg/mL	4%		
CC(NC(=S)Nc1ccc(NC(=O)c2cc3ccccc3cn2)cc1)c1ccc(Br)cc1 (stereo not shown) [Example 987, Isoquinoline-3-carboxylic acid (4-{3-[1-(4-bromo-phenyl)-ethyl]-thioureido}-phenyl)-amide]	3 µg/mL (≈ 5.94 µM)		0.046 µg/mL (≈ 0.091 µM)			
CC(NC(=S)Nc1ccc(NC(=O)c2cc3ccccc3cn2)cc1)c1ccc(F)cc1 (stereo not shown) [Example 984, Isoquinoline-3-carboxylic acid (4-{3-[1-(4-fluoro-phenyl)ethyl]-thioureido}-phenyl)-amide]	7.2 µg/mL (≈ 16.2 µM)		0.08 µg/mL (≈ 0.18 µM)			
COc1cccc(C(=O)Nc2ccc(NC(=S)Nc3ccc(OC)c(Cl)c3)cc2)c1 [Example 819, N-{4-[3-(3-Chloro-4-methoxy-phenyl)-thioureido]-phenyl}-3-methoxy-benzamide]	6 µg/mL (≈ 13.6 µM)		2.5 µg/mL (≈ 5.66 µM)	93%		
Cc1cccc(NC(=S)Nc2ccc(NC(=O)c3ccccc3F)cc2)c1 [Example 432]		1.6 µg/mL (≈ 4.22 µM)			>10 µg/mL	0%
COc1cc(OC)c(NC(=S)Nc2ccc(NC(=O)c3ccccc3F)cc2)cc1Br [Example 827, N-{4-[3-(5-Bromo-2,4-dimethoxy-phenyl)-thioureido]-phenyl}-2-fluoro-benzamide]	0.2 µg/mL (≈ 0.397 µM)		3.5 µg/mL (≈ 6.94 µM)	70%		
COc1cccc(NC(=S)Nc2ccc(NC(=O)c3ccccc3F)cc2)c1 [Example 487]		4 µg/mL (≈ 10.1 µM)			>10 µg/mL	48%
CC(NC(=S)Nc1ccc(NC(=O)c2cccc3cccnc23)cc1)c1ccc(F)cc1 (stereo not shown) [Example 991, Quinoline-8-carboxylic acid (4-{3-[1-(4-fluoro-phenyl)-ethyl]-thioureido}-phenyl)-amide]	> 10 µg/mL		0.1 µg/mL (≈ 0.225 µM)			
COc1cccc(C(=O)Nc2ccc(NC(=S)Nc3cc(Cl)c(OC)c(Cl)c3)cc2)c1 [Example 875, N-{4-[3-(3,5-Dichloro-4-methoxy-phenyl)thioureido]-phenyl}-3-methoxy-benzamide]	6 µg/mL (≈ 12.6 µM)		> 10 µg/mL	20%		

More lines, main results first:

IC50 (HSV-1)	IC50 (ug/ml) HSV (HSV-1)	SMILES	IC50 (VZV strain Ellen)	inhibition at 10 µg/mL (VZV strain Ellen)	IC50 (ug/ml) VZV (VZV strain Ellen)	% inhibition 10 ug/ml VZV (VZV strain Ellen)
> 10 µg/mL		CC(NC(=S)Nc1ccc(NC(=O)c2ccccc2F)cc1)c1ccc(S(=O)(=O)N(C)C)cc1 (stereo not shown) [Example 1008, N-(4-{3-[1-(4-Dimethylsulfamoyl-phenyl)-ethyl]-thioureido}-phenyl)-2-fluoro-benzamide]	> 10 µg/mL			
2 µg/mL (≈ 3.4 µM)		CN(c1ccc(NC(=S)Nc2ccc(NC(=O)c3ccccc3F)cc2)cc1Cl)C1CCN(Cc2ccccc2)C1 (stereo not shown) [Example 857, N-[4-(3-{4-[(1-Benzyl-pyrrolidin-3-yl)-methyl-amino]-3-chloro-phenyl}-thioureido)-phenyl]-2-fluoro-benzamide]	7 µg/mL (≈ 11.9 µM)	80%		
> 10 µg/mL		Cc1ccc([C@@H](C)NC(=S)Nc2ccc(NC(=O)c3ccccc3F)cc2)cc1 [Example 1012, 2-Fluoro-N-{4-[3-((1R)-1-p-tolyl-ethyl)-thioureido]-phenyl}-benzamide]	> 7.5 µg/mL			
0.09 µg/mL (≈ 0.205 µM)		COc1cc(C)c(Cl)cc1NC(=S)Nc1ccc(NC(=O)c2ccccc2C)cc1 [Example 850, N-{4-[3-(5-Chloro-2-methoxy-4-methyl-phenyl)-thioureido]-phenyl}-2-methyl-benzamide]	5 µg/mL (≈ 11.4 µM)	28%		
> 10 µg/mL		Cc1ccc([C@H](C)NC(=S)Nc2ccc(NC(=O)c3ccccc3F)cc2)cc1 [Example 1011, 2-Fluoro-N-{4-[3-((1S)-1-p-tolyl-ethyl)-thioureido]-phenyl}-benzamide]	0.55 µg/mL (≈ 1.35 µM)			
> 10 µg/mL		CC(NC(=S)Nc1ccc(NC(=O)c2cccc(C#N)c2)cc1)c1ccc(F)cc1 (stereo not shown) [Example 1020, 3-Cyano-N-(4-{3-[1-(4-fluoro-phenyl)-ethyl]-thioureido}-phenyl)-benzamide]	6.3 µg/mL (≈ 15.1 µM)			
> 10 µg/mL		C[C@H](NC(=S)Nc1ccc(NC(=O)c2ccccc2F)cc1)c1ccccc1 [Example 1013, 2-Fluoro-N-{4-[3-((1S)-1-phenyl-ethyl)-thioureido]-phenyl}-benzamide]	0.27 µg/mL (≈ 0.686 µM)			
	5 µg/mL (≈ 10.9 µM)	CC(=O)Nc1ccc(NC(=S)Nc2ccc(NC(=O)c3ccccc3F)cc2)cc1Cl [Example 397]			>10 µg/mL	35%
> 10 µg/mL		CC(NC(=S)Nc1ccc(NC(=O)c2cc3ccccc3cn2)cc1)c1ccc(C#N)cc1 (stereo not shown) [Example 986, Isoquinoline-3-carboxylic acid (4-{3-[1-(4-cyano-phenyl)-ethyl]-thioureido}-phenyl)-amide]	0.05 µg/mL (≈ 0.111 µM)			
	>10 µg/mL	CCCOc1ccc(NC(=S)Nc2ccc(NC(=O)c3ccccc3F)cc2)cc1Cl [Example 807]			0.9 µg/mL (≈ 1.97 µM)	
4 µg/mL (≈ 9.05 µM)		COc1ccc(C(=O)Nc2ccc(NC(=S)Nc3ccc(OC)c(Cl)c3)cc2)cc1 [Example 820, N-{4-[3-(3-Chloro-4-methoxy-phenyl)-thioureido]-phenyl}-4-methoxy-benzamide]	> 10 µg/mL	20%		
> 10 µg/mL		CC(NC(=S)Nc1ccc(NC(=O)c2cc3ccccc3o2)cc1)c1ccc(Br)cc1 (stereo not shown) [Example 982, Benzofuran-2-carboxylic acid (4-{3-[1-(4-bromo-phenyl)-ethyl]-thioureido}-phenyl)-amide]	0.1 µg/mL (≈ 0.202 µM)			
4 µg/mL (≈ 8.61 µM)		COc1c(Cl)cc(NC(=S)Nc2ccc(NC(=O)c3cccc(F)c3)cc2)cc1Cl [Example 872, N-{4-[3-(3,5-Dichloro-4-methoxy-phenyl)-thioureido]-phenyl}-3-fluoro-benzamide]	> 10 µg/mL	28%		
> 10 µg/mL		C[C@H](NC(=S)Nc1ccc(NC(=O)c2ccccc2F)cc1)c1ccc(Br)cc1 [Example 1004, (S)-N-(4-{3-[1-(4-Bromo-phenyl)-ethyl]-thioureido}-phenyl)-2-fluoro-benzamide]	0.06 µg/mL (≈ 0.127 µM)			
5 µg/mL (≈ 11.5 µM)		O=C(Nc1ccc(NC(=S)Nc2cccc(Cl)c2Cl)cc1)c1ccccc1F [Example 927, N-{4-[3-(2,3-Dichloro-phenyl)-thioureido]-phenyl}-2-fluoro-benzamide]		1%		
